Assay results published in patent publication US8513250B2 (Laboratoire Biodim, priority 2007, dated 2013).
Read-outs that look alike come from different tables or passages of the source.

Tests used:
DltA enzyme = biological target: T1, DltA enzyme (Streptococcus agalactiae serotype III, UniProt Q8VM67); assay: DltA HTS assays (luminescent / fluorescent), inhibition of DltA enzymatic activity in vitro; assay type: biochemical, S. agalactiae; conditions: Table 1; DltA inhibition, HTS assays of method 1; read-out: IC50
T1 construct: His-tag (from pET100 vector) (N); made in house; host or cells: E. coli BL21 (DE3) Star
T1 sequence (Q8VM67 1-511): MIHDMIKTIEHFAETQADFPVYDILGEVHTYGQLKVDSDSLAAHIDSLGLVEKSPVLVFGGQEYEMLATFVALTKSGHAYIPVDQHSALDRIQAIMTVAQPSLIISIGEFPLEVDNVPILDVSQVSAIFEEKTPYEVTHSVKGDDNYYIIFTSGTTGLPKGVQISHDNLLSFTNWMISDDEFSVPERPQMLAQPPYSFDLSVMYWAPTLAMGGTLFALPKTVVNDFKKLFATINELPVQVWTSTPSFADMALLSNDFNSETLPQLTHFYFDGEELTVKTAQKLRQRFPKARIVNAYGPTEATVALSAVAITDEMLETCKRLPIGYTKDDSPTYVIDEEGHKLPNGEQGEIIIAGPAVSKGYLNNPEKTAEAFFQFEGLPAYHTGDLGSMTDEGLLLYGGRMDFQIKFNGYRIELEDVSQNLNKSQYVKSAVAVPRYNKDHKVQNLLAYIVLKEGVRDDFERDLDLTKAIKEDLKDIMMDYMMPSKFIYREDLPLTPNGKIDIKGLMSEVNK
Excerpt: The compounds effect on DltA enzyme has been based on the measure of the inhibition of DltA activity in vitro.
To this end, a recombinant protein Dlta was expressed and purified after cloning of the gene of S. agalatiae as described below:
Methods 1: DltA HTS Assays
The assay described below makes use of dithiothreitol (DTT) instead of DltC as reactive thiol in the catalyzed reaction. In fact, the inventors have shown that DTT, but also Coenzyme A and N-Acetylcysteamine are all thiols able to replace efficiently DltC. In addition, contrary to the prior art, radioactivity is not used: all the assays are based either on luminescent ATP detection, or on fluorescent AMP detection. They are easily amenable to miniaturized formats and fast readouts as required by HTS.
The assay buffer “AB” contains 50 mM Hepes pH8.0, 10 mM MgCl2, 50 mM KCl, 0.012% Triton-X100. The following components are added in a white polystyrene Costar plate up to a final volume of 30 μL: 3 μL DMSO, or inhibitor dissolved in DMSO and 27 μL DltA enzyme and DTT in AB. After 30 min of pre-incubation at room temperature, 30 μL of Substrates mix in AB are added in each well to a final volume of 60 μL. This reaction mixture is then composed of 10 nM DltA (produced in house from S. agalactiae), 0.5 mM D-Alanine (Sigma), 0.5 μM ATP (Sigma) and 1 mM DTT (Biochemika) in assay buffer. After 90 min of incubation at room temperature, 30 μL of the revelation mix are added to a final volume of 90 μL, including the following constituents at the respective final concentrations: 2 nM luciferase (Sigma), 30 μM D-luciferin (Sigma), 100 μM N-acetylcysteamine (Aldrich). Luminescence intensity is immediately measured on an Analyst-HT (Molecular Devices) and converted into inhibition percentages. For IC50 (Inhibitory Concentration 50%) determinations, the inhibitor is added at 6 to 10 different concentrations, and the related inhibitions are fitted to a classical langmuir equilibrium model using XLFIT (IDBS).
The assay buffer “AB” contains 50 mM Hepes pH8.0, 10 mM MgCl2, 50 mM KCl, 0.012% Triton-X100. The following components are added in a black polystyrene Costar plate up to a final volume of 50 μL: 5 μL DMSO, or inhibitor dissolved in DMSO and 45 μL DltA enzyme and DTT in AB. After 30 min of pre-incubation at room temperature, 50 μL of Substrates-revelation mix in AB are added in each well to a final volume of 100 μL. This reaction mixture is then composed of 5 nM DltA (produced in house from S. agalactiae), 0.5 mM D-Alanine (Sigma), 10 μM ATP (Sigma), 1 mM DTT (Biochemika), 10 nM Adenylate kinase (produced in house), 5 u/mL Pyruvate Kinase (Sigma), 50 μM phosphoenolpyruvate (Sigma), 5 u/mL Lactate deshydrogenase (Sigma) and 3 μM NADH (Sigma) in assay buffer. Fluorescence intensity of NADH (λex=360 nm, λem=520 nm) is immediately measured kinetically by a Fluostar Optima (BMG). Inhibition percentages are derived from fitted initial velocities. For IC50 determinations, the inhibitor is added at 6 to 10 different concentrations, and the related inhibitions are fitted to a classical langmuir equilibrium model using XLFIT (IDBS). FIG. 2 represents the data obtained using this method.
The capacity of compounds to inhibit DltA enzymatic activity was assessed using the DltA HTS assays described in method 1.

S. agalactiae NEM316 WT [1] = assay: Minimal Antivirulent Concentration (MAC) assay, sensitization of bacteria to colistin; assay type: cell-based; conditions: S. agalactiae wt strain, in presence of colistin 32 μg/ml, overnight, no visible growth
Excerpt: The readout of the assay is called Minimum antivirulent concentration (MAC) and represents the minimal dose of compound for which no visible bacterial growth is observed in the presence of colistin at a subinhibitory concentration. MAC assay is described in Method 3 hereinafter.
Method 3: Assay for Minimal Antivirulent Concentration (MAC) and Minimal Inhibitory Concentration (MIC): Determination of Compounds Activity for Sensitization of Bacteria to Cationic Peptide (Colistin)
The Gram positive bacteria S. agalactiae NEM316 WT are grown on tryptic soy agar (TSA) broth over-night at 37° C. with air enriched with 5% CO2. Ten to fifteen colonies isolated from over-night growth on agar are then added to 10 ml of TS media to produce a standard suspension of organisms. This pre-culture is incubated at 37° C. with constant shaking during two to three hours to reach the exponential phase. This suspension is diluted to obtain a final inoculum of 1E+04 CFU/ml. Viable counts are obtained by plating 10 to 1000-fold dilutions of the suspension on TSA.
According to our standardized conditions, the final volume in the well is 100 μl in a 96-well microplate. Compounds are tested in a range of 1 to 32 μg/mL. Each well contains 2 μl of compound diluted in 100% DMSO, 48 μl of TS (microplate without colistin) or 48 μl of colistin in TS (final concentration of colistin is 32 μg/ml for S. agalactiae), then […] (final inoculum of 1 E+04 CFU/ml). Final concentration of DMSO is 2%. Positive growth control wells for each organism are prepared with and without colistin and DMSO 2% final concentration. S. agalactiae NEM316 Δdlt is used in control wells to verify the effect of the colistin on a sensitive strain.
The microplates are then incubated overnight at 37° C. with 5% CO2. Visible bacterial growth is finally quantified by unaided eye.
The MAC of each compound is derived from the experiment in presence of colistin and is defined as the minimal concentration of compound for which no bacterial visible growth is observed.

S. agalactiae NEM316 WT [2] = assay: Minimal Inhibitory Concentration (MIC) assay, absence of colistin; assay type: cell-based; conditions: Streptococcus agalactiae, NEM316WT
[3] = test system: S. agalactiae strain NEM316; assay: Colistin activity on wild type S. agalactiae; assay type: cell-based
Excerpt: (§1) The peptide used was colistin which mimicks the effect of antibacterial cationic peptide of innate immunity. In common with other polymixins, colistin is rapidly bactericidal and exerts its effect by acting as a cationic detergent, causing disruption of the integrity of the bacterial cell membrane, with leakage of intracellular contents and cell death.

S. aureus strain 54.316 = assay: Colistin activity on S. aureus; assay type: cell-based
Excerpt: as §1

[4] = test system: dltA defective mutant of S. agalactiae; assay: Colistin activity on dltA defective mutant; assay type: cell-based
Excerpt: as §1

[5] = test system: S. agalactiae strain NEM316; assay: Experimental model of systemic infection in mice, organ bacteraemia at 48 h; assay type: in vivo; conditions: BALB/c mice, i.v. infection, compound intraperitoneal immediately after infection, spleen bacteraemia 48 h
Method: The effect of DltA inhibitors on the bacteria during an infection was assessed by injecting the molecules at different doses in group of mice that have received an infective dose of bacteria.
Description of Experimental Models Used to Assess the Efficacy of Inhibitors In Vivo:
Briefly, in vivo studies were performed using 4-5-week-old female BALB/c@Rj nice. S. agalactiae strain NEM316 bacteria were grown to exponential phase in broth culture. 200 μl of a bacterial suspension of 3.10^7 CFU/ml were administered by intravenous injection to groups of six mice (6.10^6 CFU/mouse). Exact inoculums counts were determined by plating 10-fold dilutions of the suspension on TH agar plates immediately after inoculation.
The compounds to be assessed are dissolved and diluted to obtain different concentration in a solution containing solutol; and 400 μl of each compound solution is injected intraperinonaly immediately after infection of the mouse. […]
The antibacterial effect obtained with different concentrations of compounds is measured by the level of bacteraemia observed at 48 H.
The graphs represent the average value of the organ bacteremia that is determined by the number of UFC/mg of organs (spleen) at 48 h post infection, obtained for each group of mice that have received different concentration of compounds (expressed in mg/kg). […]

[6] = S. agalactiae wt strain, absence of colistin, overnight, no visible growth, read-out: MIC SAG wt

| Molecule | IC50 (DltA enzyme) [nM] | MAC (S. agalactiae NEM316 WT [1]) [µg/mL] | MIC (S. agalactiae NEM316 WT [2]; [6]) [µg/mL] | MIC ([3]; S. agalactiae strain NEM316 wild type) [µg/mL] | effect on the wild type strain growth ([3]; colistin 32 μg/ml, S. agalactiae wild type) | MIC (S. aureus strain 54.316) [µg/mL] | dose that can inhibit totally the growth [4] [µg/mL] | MIC (S. agalactiae NEM316 WT [2]; read-out: MIC SAG wt (μg/ml)) [µg/mL] | effective concentration [5] [mg/kg] |
| --- | --- | --- | --- | --- | --- | --- | --- | --- | --- |
| OCCCNc1nc2cc(OC(F)(F)F)ccc2n2c(-c3ccn[nH]3)cnc12 [Example 51, 3-{[1-(1H-pyrazol-5-yl)-7-(trifluoromethoxy)imidazo[1,2-a]quinoxalin-4-yl]amino}propan-1-ol] | 9 | 2 | > 32 | – | – | – | – | – | – |
| Cc1cc(-c2cnc3c(NCCCO)nc4cc(C(F)(F)F)ccc4n23)[nH]n1 [Example 39, 3-({1-[3-methyl-1H-pyrazol-5-yl]-7-(trifluoromethyl)imidazo[1,2-a]quinoxalin-4-yl}amino)propan-1-ol] | 13.5 | 8 | > 32 | – | – | – | – | – | – |
| colistin | – | – | – | ≥ 1024 | without effect | ≥ 1024 | 32 | – | – |
| OCCCNc1nc2cc(C(F)(F)F)ccc2n2c(-c3cccc(CO)c3)cnc12 [Example 16, 3-({1-[3-(hydroxymethyl)phenyl]-7-(trifluoromethyl)imidazo[1,2-a]quinoxalin-4-yl}amino)propan-1-ol] | 520 | 8 | > 32 | – | – | – | – | – | – |
| CC(C)(C)c1cc(-c2cnc3c(NCCCO)nc4cc(C(F)(F)F)ccc4n23)[nH]n1 [Example 36, 3-({1-[3-tert-butyl-1H-pyrazol-5-yl]-7-(trifluoromethyl)imidazo[1,2-a]quinoxalin-4-yl}amino)propan-1-ol] | 49 | 4 | > 32 | – | – | – | – | – | – |
| CCOC(=O)c1cc(-c2cnc3c(NCCCO)nc4cc(C(F)(F)F)ccc4n23)[nH]n1 [Example 47, 5-[4-(3-Hydroxy-propylamino)-7-trifluoromethyl-imidazo[1,2-a]quinoxalin-1-yl]-1H-pyrazole-3-carboxylic acid ethyl ester] | 35 | 8 | > 32 | – | – | – | – | – | – |
| OCCCNc1nc2cc(C(F)(F)F)ccc2n2c(-c3cnn[nH]3)cnc12 [Example 35, 3-{[1-(1H-1,2,3-triazol-5-yl)-7-(trifluoromethyl)imidazo[1,2-a]quinoxalin-4-yl]amino}propan-1-ol] | 270 | 2 | – | – | – | – | – | > 32 | – |
| OCCCNc1nc2cc(C(F)(F)F)ccc2n2c(-c3ccn[nH]3)cnc12 [Example 19, 3-{[1-(1H-pyrazol-5-yl)-7-(trifluoromethyl)imidazo[1,2-a]quinoxalin-4-yl]amino}propan-1-ol] | 9 | 2 | > 32 | – | – | – | – | – | 10 |
| CNC(=O)c1cc(-c2cnc3c(NCCCO)nc4cc(C(F)(F)F)ccc4n23)[nH]n1 [Example 50, 5-{4-[(3-hydroxypropyl)amino]-7-(trifluoromethyl)imidazo[1,2-a]quinoxalin-1-yl}-N-methyl-1H-pyrazole-3-carboxamide] | 38 | 8 | > 32 | – | – | – | – | – | – |
